Common to all, as to assay type: cell-based, Acinetobacter baumannii
For one assay, the system named is A. baumannii NCTC 13304. Briefly: Broth microdilution MIC (CLSI), A. baumannii NCTC 13304. The note with it: for MIC: Acinetobacter baumannii, NCTC13304; for MIC of Sulbactam in combination of compound: compound at 4 mcg/ml; for MIC of Cefepime in combination of compound: compound at 8 mcg/ml. The protocol:
(§1) The broth microdilution Minimum Inhibitory Concentration (MIC) studies were conducted as per the CLSI recommendations (Clinical and Laboratory Standards Institute (CLSI), Performance Standards for Antimicrobial Susceptibility Testing, 20th Informational Supplement, M 100-S20, Volume 30, No. 1, 2010). The media utilized was Brain Heart Infusion broth (BD, USA). In brief, 50 mcl of serial double dilutions of the antibacterial agents in Brain Heart Infusion media were dispensed in 96 well microtiter plate. 50 mcl of culture suspension was added to each pre dispensed drug dilution such that the final bacterial inoculum density was 2-8×10^5 CFU/ml. The plates were incubated for 20-24 hours at 35±2° C. and observed visually for growth or no growth based on the turbidity. Three specific compounds generally represented by a general Formula (I) were used and are as follows: • 1. (2S,5R)-7-oxo-N-[(3S)-pyrrolidin-3-yloxy]-6-(sulfooxy)-1,6-diazabicyclo[3.2.1]octane-2-carboxamide (Compound A),
(§2) The results of antibacterial activity of various compounds when used alone and in combinations according to the inventions are shown in Tables 1 and 2 respectively. The strains of A. baumannii used for the study were those which produced carbapenem hydrolyzing class D beta-lactamase enzymes (OXA 23, OXA 24 or OXA 27). […] In general, the MIC values of Sulbactam and Cefepime reduced when these were combined with Compounds A, B and C.
(In general: In broth dilution the organism is exposed to a series of concentrations in liquid medium.)

The test system of another assay is A. baumannii NCTC 13302. In words: Broth microdilution MIC (CLSI), A. baumannii NCTC 13302. The settings on record: for MIC: Acinetobacter baumannii, NCTC13302; for MIC of Sulbactam in combination of compound: compound at 4 mcg/ml; for MIC of Cefepime in combination of compound: compound at 8 mcg/ml. The protocol:
as §1, §2

Another assay has as its system A. baumannii. Briefly: Broth microdilution MIC (CLSI), A. baumannii strains overall. The note with it: used alone; for MIC: Acinetobacter baumannii, A. baumannii strains producing OXA 23, OXA 24 or OXA 27. On the procedure:
as §1, §2

The next assay deals with A. baumannii NCTC 13301. In words: Broth microdilution MIC (CLSI), A. baumannii NCTC 13301. The note with it: for MIC: Acinetobacter baumannii, NCTC13301; for MIC of Sulbactam in combination of compound: compound at 4 mcg/ml; for MIC of Cefepime in combination of compound: compound at 8 mcg/ml. The protocol:
as §1, §2

Where [1] appears, read: compound alone, A. baumannii NCTC 13304 (OXA 51, OXA 27), read-out: MIC.
The mark [2] stands for this setting: A. baumannii NCTC 13304 (OXA 51, OXA 27).
Setting [3] is: compound alone, A. baumannii NCTC 13302 (OXA 51, OXA 24), read-out: MIC.
Where [4] appears, read: A. baumannii NCTC 13302 (OXA 51, OXA 24).
The mark [5] stands for this setting: compound alone, A. baumannii NCTC 13301 (OXA 51, OXA 23), read-out: MIC.
[6] abbreviates: A. baumannii NCTC 13301 (OXA 51, OXA 23).

Read-outs that look alike come from different tables or passages of the source.

Broadly, the MIC is the least concentration at which growth counts as inhibited.

Take `CC1(C)[C@H](C(=O)O)N2C(=O)C[C@H]2S1(=O)=O` [Sulbactam, reference compound]: the minimal inhibitory concentration (MIC) with A. baumannii NCTC 13304 was found to be 32 µg/mL; with A. baumannii NCTC 13302, 16 µg/mL; in the assay with A. baumannii NCTC 13301, 8 µg/mL. In addition, the “antibacterial activity against A. baumannii” value (from here on “antibacterial activity”) in the assay on A. baumannii is on record as “poor antibacterial activity”.
`O=C(NO[C@H]1CCNC1)[C@@H]1CC[C@@H]2CN1C(=O)N2OS(=O)(=O)O` [Compound A, (2S,5R)-7-oxo-N-[(3S)-pyrrolidin-3-yloxy]-6-(sulfooxy)-1,6-diazabicyclo[3.2.1]octane-2-carboxamide]: the MIC in the assay with A. baumannii NCTC 13304 (setting [1]), with A. baumannii NCTC 13302 (setting [3]), in the assay with A. baumannii and in the assay with A. baumannii NCTC 13301 (setting [5]) was over 128 µg/mL in each case. For the same compound, the “MIC of Sulbactam in combination of compound” value (“MIC of Sulbactam” for short) with A. baumannii NCTC 13304 (setting [2]) came out at 8 µg/mL; in the assay on A. baumannii NCTC 13302 (setting [4]) it was 8 µg/mL; in the assay with A. baumannii NCTC 13301 (setting [6]), 4 µg/mL. Further, the “MIC of Cefepime in combination of compound” value (shortened to “MIC of Cefepime”) in the assay on A. baumannii NCTC 13304 (setting [2]), in the assay with A. baumannii NCTC 13302 (setting [4]) and in the assay with A. baumannii NCTC 13301 (setting [6]) was 16 µg/mL each time.
For the compound `O=C(NOC[C@@H]1CCCCN1)[C@@H]1CC[C@@H]2CN1C(=O)N2OS(=O)(=O)O` [Compound C, (2S,5R)-7-oxo-N-[(2S)-piperidine-2-ylmethyloxy]-6-(sulfooxy)-1,6-diazabicyclo[3.2.1]octane-2-carboxamide], the MIC in the assay on A. baumannii NCTC 13304 (setting [1]), with A. baumannii NCTC 13302 (setting [3]), with A. baumannii and in the assay with A. baumannii NCTC 13301 (setting [5]) was over 128 µg/mL in each case. The “MIC of Sulbactam” value in the assay on A. baumannii NCTC 13304 (setting [2]) came out at 8 µg/mL; with A. baumannii NCTC 13302 (setting [4]), 8 µg/mL; in the assay with A. baumannii NCTC 13301 (setting [6]), 4 µg/mL. Besides, the “MIC of Cefepime” value amounted to 8 µg/mL with A. baumannii NCTC 13304 (setting [2]), 16 µg/mL in the assay on A. baumannii NCTC 13302 (setting [4]) and 32 µg/mL in the assay on A. baumannii NCTC 13301 (setting [6]).
`O=C(NOC[C@@H]1CCCN1)[C@@H]1CC[C@@H]2CN1C(=O)N2OS(=O)(=O)O` [Compound B, (2S,5R)-7-oxo-N-[(2S)-pyrrolidin-2-ylmethyloxy]-6-(sulfooxy)-1,6-diazabicyclo[3.2.1]octane-2-carboxamide]: the MIC in the assay on A. baumannii NCTC 13304 (setting [1]), in the assay with A. baumannii NCTC 13302 (setting [3]), with A. baumannii and with A. baumannii NCTC 13301 (setting [5]) was over 128 µg/mL in each case. Also, the “MIC of Sulbactam” value in the assay on A. baumannii NCTC 13304 (setting [2]), with A. baumannii NCTC 13302 (setting [4]) and in the assay with A. baumannii NCTC 13301 (setting [6]) was 4 µg/mL in each case. Moreover, the “MIC of Cefepime” value is 8 µg/mL with A. baumannii NCTC 13304 (setting [2]), 16 µg/mL with A. baumannii NCTC 13302 (setting [4]) and 16 µg/mL in the assay with A. baumannii NCTC 13301 (setting [6]).
For the compound `CO/N=C(\C(=O)N[C@@H]1C(=O)N2C(C(=O)[O-])=C(C[N+]3(C)CCCC3)CS[C@H]12)c1csc(N)n1` [Cefepime, reference compound], the results for the minimum inhibitory concentration (MIC) in the assay on A. baumannii NCTC 13304 (setting [1]), with A. baumannii NCTC 13302 (setting [3]) and in the assay on A. baumannii NCTC 13301 (setting [5]) were 32 µg/mL, 32 µg/mL and over 32 µg/mL, respectively. In addition, the “antibacterial activity” value in the assay with A. baumannii is reported as “poor antibacterial activity”.
As for `C[C@@H](O)[C@H]1C(=O)N2C(C(=O)O)=C(S[C@@H]3CN[C@H](C(=O)N(C)C)C3)[C@H](C)[C@H]12` [Meropenem, reference compound], the MIC with A. baumannii NCTC 13304 (setting [1]) was over 32 µg/mL; in the assay on A. baumannii NCTC 13302 (setting [3]), over 32 µg/mL; with A. baumannii NCTC 13301 (setting [5]), 32 µg/mL. Further, the “antibacterial activity” value in the assay on A. baumannii is given as “poor antibacterial activity”.
